Test results from patent US8053453B2, “Pyrazolone compounds and thrombopoietin receptor activator” (Nissan Chemical Industries, Ltd., priority 2002, dated 2011).
Read-outs that look alike come from different tables or passages of the source.

Target: T1, human TPO receptor (Homo sapiens, UniProt P40238)
T1 construct: expressed in transfected cells
T1 sequence (P40238 26-635): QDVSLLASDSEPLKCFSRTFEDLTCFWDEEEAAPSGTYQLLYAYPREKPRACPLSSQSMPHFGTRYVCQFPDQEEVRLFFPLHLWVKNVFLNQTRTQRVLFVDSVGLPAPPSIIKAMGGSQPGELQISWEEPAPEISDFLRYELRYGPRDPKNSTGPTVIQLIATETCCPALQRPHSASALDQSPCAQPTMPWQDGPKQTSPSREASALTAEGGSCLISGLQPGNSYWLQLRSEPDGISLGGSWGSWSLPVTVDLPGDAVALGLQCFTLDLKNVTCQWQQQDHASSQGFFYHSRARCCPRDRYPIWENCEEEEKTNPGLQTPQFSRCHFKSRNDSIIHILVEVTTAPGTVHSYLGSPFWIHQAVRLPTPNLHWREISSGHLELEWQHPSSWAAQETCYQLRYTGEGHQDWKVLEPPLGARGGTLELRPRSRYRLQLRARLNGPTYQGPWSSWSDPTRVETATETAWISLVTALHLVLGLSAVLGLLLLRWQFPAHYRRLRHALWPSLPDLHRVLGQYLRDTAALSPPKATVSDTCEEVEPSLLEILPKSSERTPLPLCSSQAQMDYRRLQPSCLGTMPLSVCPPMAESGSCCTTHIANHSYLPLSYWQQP
Test: Proliferation of TPO-dependent cell line UT7/EPO-mpl, MTT method (Assay Examples 1, 3, 4)
Type: cell-based
Conditions: UT7/EPO-mpl cells; for EC50: concentration giving 50% of the maximum cell growth observed with the same compound; for Efficacy (%) (maximal growth rate) / Emax: value in the presence of 10 ng/ml TPO taken as 100% standard, method of Assay Example 1; for Emax: read-out: Efficacy (%) (maximal growth rate)
Method: The reactivity of Synthetic Example 56, the compound of the present invention, with thrombopoietin (TPO) receptor was assayed using a human leukemic cell line, UT7/EPO-mpl.
UT7/EPO-mpl is a stable transformed cell line obtained by introducing into human leukemic cell line UT7/EPO a vector that induces expression of human TPO receptor (c-mp1) under control of a cytomegaloviral promoter by the method of Takatoku et al. (J. Biol. Chem., 272:7259-7263 (1997)). […] These two cell lines were subcultured in Iscove's modified Dulbecco's medium (IMDM; GIBCO) containing 10% fetal bovine serum (FBS; TRACE SCIENTIFIC) using a CO2 incubator (5% CO2, 37° C.).
The subcultured cells described above were washed twice with phosphate buffered saline (PBS) and suspended in IMDM containing 10% FBS at a cell density of 6×10^4 cells/ml. The cell suspension was transferred to a 96-well tissue culture plate (CORNING) in 100-μl aliquots. Then either TPO (PeproTech EC) or Synthetic Example 56 dissolved in dimethylsulfoxide (DMSO) was diluted 83-fold with IMDM containing 10% FBS and added to the aforementioned cell suspension in 20-μl aliquots. The suspension was incubated in a CO2 incubator (5% CO2, 37° C.) for 4 days. Cell proliferation was assayed according to the method of Mosmann et al. (J. Immunol. Methods, 65:55-63 (1983)). A 10-μl aliquot of 5 mg/ml MTT reagent (SIGMA) was added to each well of the tissue culture plate and the plate was incubated at 37° C. for 4 h. The formazan pigment generated was dissolved by adding 150 μl per well of 0.1 M HCl/isopropanol solution and the absorbance of the resulting pigment solution was measured at 550 nm with a 96-well microplate reader (BIO-RAD, M450).
The following Synthetic Examples were tested according to the method of Assay Example 1 to determine the maximal growth rate (efficacy), expressed by taking the value with human leukemic cell line UT7/EPO-mpl observed in the presence of 10 ng/ml TPO as 100% standard, and the concentration of each compound that yields a growth rate corresponding to 50% of the maximum cell growth observed with the same compound (EC50).
Synthetic Example 56, the compound of the present invention, and four compounds (Reference Synthetic Examples 1 to 4) described in a publication of international patent application (Publication No. WO01/34585, applied by SmithKline Beecham Corp.) were tested according to the method of Assay Example 1.

[1] = read-out: EC50 (ng/ml) (converted)

SMILES	EC50 [µg/mL]	Efficacy (%) (maximal growth rate)	EC50 [1] [nM]	Emax [%]
CC1=NN(c2ccc(C(F)(F)F)cc2)C(=O)C1=C(C)NNC(=O)c1ccc(O)cc1O [compound 33]	0.0011	96	–	–
CC1=NN(c2ccc(C(F)(F)F)cc2)C(=O)C1=C(C)NNC(=O)c1ccc(O)c(O)c1 [compound 34]	0.0052	99	–	–
CC1=NN(c2ccc(C(F)(F)F)cc2)C(=O)C1=C(C)NNC(=O)c1ccccc1[N+](=O)[O-] [compound 35]	0.034	99	–	–
CC1=NN(c2ccc(C(F)(F)F)cc2)C(=O)C1=C(C)NNC(=O)c1cccc([N+](=O)[O-])c1 [compound 36]	0.059	97	–	–
CC1=NN(c2ccc(C(F)(F)F)cc2)C(=O)C1=C(C)NNC(=O)c1ccc([N+](=O)[O-])cc1 [compound 37]	0.14	63	–	–
CC1=NN(c2ccc(I)cc2)C(=O)C1=C(C)NNC(=O)c1ccccc1O [compound 38]	0.036	93	–	–
CC1=NN(c2ccc(I)cc2)C(=O)C1=C(C)NNC(=O)c1ccc(O)cc1 [compound 39]	0.028	97	–	–
CC1=NN(c2ccc(I)cc2)C(=O)C1=C(C)NNC(=O)c1cc2ccccc2cc1O [compound 40]	0.25	37	–	–
CC1=NN(c2ccc(I)cc2)C(=O)C1=C(C)NNC(=O)c1ccc(O)c(O)c1 [compound 41]	0.032	115	–	–
CC1=NN(c2ccc(I)cc2)C(=O)C1=C(C)NNC(=O)c1ccccc1[N+](=O)[O-] [compound 42]	0.25	71	–	–
CC1=NN(c2ccc(I)cc2)C(=O)C1=C(C)NNC(=O)c1cccc([N+](=O)[O-])c1 [compound 43]	0.083	87	–	–
CC1=NN(c2ccc(I)cc2)C(=O)C1=C(C)NNC(=O)c1ccc([N+](=O)[O-])cc1 [compound 44]	0.25	26	–	–
CC1=NN(c2cccc(C(F)(F)F)c2)C(=O)C1=C(C)NNC(=O)c1ccccc1O [compound 45]	0.03	74	–	–
CC1=NN(c2cccc(C(F)(F)F)c2)C(=O)C1=C(C)NNC(=O)c1ccc(O)cc1 [compound 46]	0.015	82	–	–
CC1=NN(c2cccc(C(F)(F)F)c2)C(=O)C1=C(C)NNC(=O)c1cc2ccccc2cc1O [compound 47]	0.19	48	–	–
CC1=NN(c2cccc(C(F)(F)F)c2)C(=O)C1=C(C)NNC(=O)c1ccc(O)cc1O [compound 48]	0.008	62	–	–
CC1=NN(c2cccc(C(F)(F)F)c2)C(=O)C1=C(C)NNC(=O)c1ccc(O)c(O)c1 [compound 49]	0.0091	62	–	–
CC1=NN(c2cccc(C(F)(F)F)c2)C(=O)C1=C(C)NNC(=O)c1ccccc1[N+](=O)[O-] [compound 50]	0.037	89	–	–
CC1=NN(c2cccc(C(F)(F)F)c2)C(=O)C1=C(C)NNC(=O)c1cccc([N+](=O)[O-])c1 [compound 51]	0.033	73	–	–
CC1=NN(c2cccc(C(F)(F)F)c2)C(=O)C1=C(C)NNC(=O)c1ccc([N+](=O)[O-])cc1 [compound 52]	–	–	268	22
CC1=NN(c2ccc(C)c(C)c2)C(=O)C1=C(C)NNC(=O)c1ccccc1O [compound 53]	–	–	31.7	120

SMILES	EC50 [µg/mL]	Efficacy (%) (maximal growth rate)	EC50 [1] [nM]	Emax [%]
CC1=NN(c2ccc(C)c(C)c2)C(=O)C1=C(C)NNC(=O)c1ccc(O)cc1 [compound 54]	0.0075	61	–	–
CC1=NN(c2ccc(C)c(C)c2)C(=O)C1=C(C)NNC(=O)c1cc2ccccc2cc1O [compound 55]	0.22	53	–	–
CC1=NN(c2ccc(C)c(C)c2)C(=O)C1=C(C)NNC(=O)c1ccc(O)cc1O [compound 56]	0.0011	96	–	–
CC1=NN(c2ccc(C)c(C)c2)C(=O)C1=C(C)NNC(=O)c1ccc(O)c(O)c1 [compound 57]	0.0059	97	–	–
CC1=NN(c2ccc(C)c(C)c2)C(=O)C1=C(C)NNC(=O)c1ccccc1[N+](=O)[O-] [compound 58]	0.032	110	–	–
CC1=NN(c2ccc(C)c(C)c2)C(=O)C1=C(C)NNC(=O)c1cccc([N+](=O)[O-])c1 [compound 59]	–	–	58.9	82
CC1=NN(c2ccc(C)c(C)c2)C(=O)C1=C(C)NNC(=O)c1ccc([N+](=O)[O-])cc1 [compound 60]	0.1	62	–	–
CC1=NN(c2ccc(Cl)c(Cl)c2)C(=O)C1=C(C)NNC(=O)c1ccccc1O [compound 61]	0.029	91	–	–
CC1=NN(c2ccc(Cl)c(Cl)c2)C(=O)C1=C(C)NNC(=O)c1ccc(O)cc1 [compound 62]	0.0064	57	–	–
CC1=NN(c2ccc(Cl)c(Cl)c2)C(=O)C1=C(C)NNC(=O)c1cc2ccccc2cc1O [compound 63]	0.19	21	–	–
CC1=NN(c2ccc(Cl)c(Cl)c2)C(=O)C1=C(C)NNC(=O)c1ccc(O)cc1O [compound 64]	0.0077	74	–	–
CC1=NN(c2ccc(Cl)c(Cl)c2)C(=O)C1=C(C)NNC(=O)c1ccc(O)c(O)c1 [compound 65]	0.0089	70	–	–
CC1=NN(c2ccc(Cl)c(Cl)c2)C(=O)C1=C(C)NNC(=O)c1ccccc1[N+](=O)[O-] [compound 66]	0.033	133	–	–
CC1=NN(c2ccc(Cl)c(Cl)c2)C(=O)C1=C(C)NNC(=O)c1cccc([N+](=O)[O-])c1 [compound 67]	0.033	80	–	–
CC1=NN(c2ccc(Cl)c(Cl)c2)C(=O)C1=C(C)NNC(=O)c1ccc([N+](=O)[O-])cc1 [compound 68]	0.21	26	–	–
CC1=NN(c2ccc(C(C)(C)C)cc2)C(=O)C1=C(C)NNC(=O)c1ccc(N)cc1 [compound 69]	0.0057	89	–	–
CC1=NN(c2ccc(C(C)(C)C)cc2)C(=O)C1=C(C)NNC(=O)c1cccc(N)c1 [compound 70]	0.023	87	–	–
CC1=NN(c2ccc(C(C)(C)C)cc2)C(=O)C1=C(C)NNC(=O)c1ccc(C(F)(F)F)cc1 [compound 71]	0.069	89	–	–
CC1=NN(c2ccc(C(C)(C)C)cc2)C(=O)C1=C(C)NNC(=O)c1ccc(C(C)(C)C)cc1 [compound 72]	0.075	88	–	–
CC1=NN(c2ccc(C)c(C)c2)C(=O)C1=C(C)NNC(=O)c1ccc(N)cc1 [compound 73]	0.01	84	–	–
